Experimental data published in US8481551B2, “Gyrase and topoisomerase IV inhibitors” (Vertex Pharmaceuticals Incorporated, priority 2011, dated 2013).
Structures can show the parent of a compound that is named as a salt. Where two headings read alike, the source gives them in different places.

Assays:
Neisseria gonorrhoeae = experiment: Gyrase MIC, agar dilution method (Protocol 3); assay type: cell-based
Neisseria meningitidis = experiment: Gyrase MIC, agar dilution method (Protocol 3); assay type: cell-based; conditions: 12 isolates tested
Enterococcus faecium = experiment: Gyrase MIC, microdilution broth method (Protocol 1)
Nocardia caviae = experiment: MIC determination procedure for Mycobacterium species (Protocol 4); assay type: cell-based; conditions: Nocardia otitidiscaviarum
S. aureus (ATCC 29213) = experiment: Mouse S. aureus kidney infection model; assay type: in vivo, CD-1 mice
Protocol: Animals: female CD-1 mice (8-10 weeks of age; 6/group), were obtained from Charles River Laboratories and were housed and maintained in accordance with the Guide to the Care and Use of Experimental Animals. Methicillin-sensitive S. aureus (MSSA) strain ATCC 29213 was obtained from the American Type Culture Collection. To prepare stocks for animal studies S. aureus was plated on Mueller Hinton Agar plates and incubated at 37° C. overnight. 3-4 colonies from the plate were used to inoculate 5 mL Mueller Hinton Broth (MHB) that was incubated for 8 hours at 37° C. with shaking at 300 RPM. The 5 mL 8-hour culture was diluted 20-fold into 100 mL and incubated overnight (12-14 hours). The bacteria were pelleted for 20 minutes at 3000× and washed twice with Phosphate-Buffered Saline (PBS) containing 0.5% Bovine Serum Albumin (BSA). Aliquots (1 mL) containing ˜1×10^10 cfu in PBS/20% Glycerol were frozen and stored at −80° C. until the day of use. Stock titers were confirmed by serial dilution and plating on Mueller Hinton agar plates. Prior to inoculation, bacterial stocks were thawed and washed once with PBS/BSA. The stocks were then diluted with PBS/BSA to a final concentration of 1×10^9 cfu/mL to give an inoculum of approximately 1-2×10^8 cfu per mouse in a volume of 100 uL. […] Injections were given intravenously via the tail vein using a sterile 30 gauge needle. Upon completion of the mouse infections, the bacterial stocks used to challenge the mice were plated and counted to verify the concentration of the inocula. […] Fisher Scientific). During collection and homogenization all of the samples were kept on ice and the homogenizer was washed thoroughly and sterilized between each sample. Homogenates were serially diluted in sterile PBS/BSA and plated on MH agar to determine bacterial counts per pair of kidneys. CD-1 mice (6/group) were challenged IV with S. aureus (ATCC 29213) at 2×10^8 cfu/mouse. […] The 30-minute and 6-hour treatment groups were treated once, while the 24-hour group received a second treatment 10 hours after the first dose. […] Burdens from pairs of kidneys for each mouse and the median for each group of mice were calculated. CD-1 mice (6/group) were challenged IV with S. aureus (ATCC 29213) at 2×10^8 cfu/mouse. After 2 hours a single group of mice (Early Control (EC)) was euthanized and the kidneys harvested, homogenized and plated to quantitate S. aureus burdens. The additional groups of infected mice were treated via oral gavage with Vehicle at 10 ml/kg (10% VitE TPGS; […] After 24 hours the groups of treated mice were euthanized and the kidneys harvested, homogenized and plated to quantitate S. aureus burdens. Burdens from pairs of kidneys for each mouse and the median for each group of mice were summarized. CD-1 mice (8/group) were challenged IV with S. aureus (ATCC 29213) at 2×10^8 cfu/mouse. After 2 hours a single group of mice (Early Control (EC)) was euthanized and the kidneys harvested, homogenized and plated to quantitate S. aureus burdens. The additional groups of infected mice were treated via oral gavage with Vehicle at 10 ml/kg (Water; […] After 24 hours the groups of treated mice were euthanized and the kidneys harvested, homogenized and plated to quantitate S. aureus burdens. Burdens from pairs of kidneys for each mouse and the median for each group of mice were summarized.

Bacillus cereus = experiment: Gyrase MIC, microdilution broth method (Protocol 1); assay type: cell-based
Fusobacterium spp. = experiment: Gyrase MIC, agar dilution method (Protocol 3); assay type: cell-based; conditions: 16 isolates tested
Bacteroides fragilis = experiment: Gyrase MIC, agar dilution method (Protocol 3); assay type: cell-based; conditions: 25 isolates tested
Staphylococcus aureus = experiment: microbe, parasite or virus in culture; assay type: cell-based
Pseudomonas aeruginosa = experiment: Gyrase MIC against Gram negatives, microdilution broth method (Protocol 2)
[1] = Neisseria gonorrhoeae, 13 isolates tested
[2] = 10 mg/kg oral gavage, second treatment 10 hours after first, 24 Hours
[3] = 10 mg/kg oral gavage, treated once, 6 Hours
[4] = 30 mg/kg oral gavage, second treatment 10 hours after first, 24 Hours
[5] = 30 mg/kg oral gavage, treated once, 6 Hours
[6] = 30 mg/kg oral gavage, treated once, 30 Minutes
[7] = 100 mg/kg oral gavage, second treatment 10 hours after first, 24 Hours
[8] = 100 mg/kg oral gavage, treated once, 6 Hours
[9] = 100 mg/kg oral gavage, treated once, 30 Minutes
[10] = single oral dose 10 mg/kg, after 24 hours
[11] = single oral dose 30 mg/kg, after 24 hours
[12] = single oral dose 60 mg/kg, after 24 hours
[13] = single oral dose 100 mg/kg, after 24 hours
[14] = single oral dose 16 (10) mg/kg Compound W, after 24 hours
[15] = single oral dose 49 (30) mg/kg Compound W, after 24 hours
[16] = single oral dose 99 (60) mg/kg Compound W, after 24 hours
[17] = single oral dose 166 (100) mg/kg Compound W, after 24 hours

CCNC(=O)Nc1nc2cc(-c3cnc(C(C)(C)O)nc3)c(F)c([C@H]3CCCO3)c2[nH]1 [Compound 23A, methanesulfonic acid salt of 1-ethyl-3-[6-fluoro-5-[2-(1-hydroxy-1-methyl-ethyl)pyrimidin-5-yl]-7-[(2R)-tetrahydrofuran-2-yl]-1H-benzimidazol-2-yl]urea]
MIC (Neisseria gonorrhoeae; ATCC35541, Neisseria gonorrhoeae ATCC 35541): 0.42 µg/mL
MIC (Neisseria gonorrhoeae; ATCC49226, Neisseria gonorrhoeae ATCC 49226): 1 µg/mL
MIC90 (Neisseria gonorrhoeae; [1]): 0.25 µg/mL
MIC Range (Neisseria gonorrhoeae; [1]): 0.12 to 0.25 µg/mL
MIC90 (Neisseria meningitidis): 0.03 µg/mL
MIC Range (Neisseria meningitidis): 0.008 to 0.06 µg/mL
MIC90 (Enterococcus faecium): 0.12 µg/mL
MIC Range (Enterococcus faecium; 33 isolates tested, Protocol 1): 0.003 to 0.25 µg/mL
MIC (Enterococcus faecium; ATCC49624, Enterococcus faecium ATCC 49624, Protocol 1): 0.11 µg/mL
MIC (Enterococcus faecium; ATCC49624, Enterococcus faecium ATCC 49624 with Laked Horse Blood, Protocol 1): 0.11 µg/mL
MIC (Nocardia caviae): 0.125 µg/mL
Median Kidney Burden (Log cfu/kidneys) (S. aureus (ATCC 29213); 10 mg/kg oral gavage 2 h post challenge, treated once, time of treatment 30 Minutes): 4.84 Log cfu/kidneys
Log Difference vs. Vehicle Control (S. aureus (ATCC 29213); [2]): −1.87
Median Kidney Burden (Log cfu/kidneys) (S. aureus (ATCC 29213); [2]): 4.48 Log cfu/kidneys
Log Difference vs. Vehicle Control (S. aureus (ATCC 29213); [3]): −0.37
Median Kidney Burden (Log cfu/kidneys) (S. aureus (ATCC 29213); [3]): 4.84 Log cfu/kidneys
Log Difference vs. Vehicle Control (S. aureus (ATCC 29213); 10 mg/kg oral gavage, treated once, 30 Minutes): −0.14
Log Difference vs. Vehicle Control (S. aureus (ATCC 29213); [4]): −2.90
Median Kidney Burden (Log cfu/kidneys) (S. aureus (ATCC 29213); [4]): 3.44 Log cfu/kidneys
Log Difference vs. Vehicle Control (S. aureus (ATCC 29213); [5]): −0.59
Median Kidney Burden (Log cfu/kidneys) (S. aureus (ATCC 29213); [5]): 4.62 Log cfu/kidneys
Log Difference vs. Vehicle Control (S. aureus (ATCC 29213); [6]): 0.00
Median Kidney Burden (Log cfu/kidneys) (S. aureus (ATCC 29213); [6]): 4.97 Log cfu/kidneys
Log Difference vs. Vehicle Control (S. aureus (ATCC 29213); [7]): −2.86
Median Kidney Burden (Log cfu/kidneys) (S. aureus (ATCC 29213); [7]): 3.49 Log cfu/kidneys
Log Difference vs. Vehicle Control (S. aureus (ATCC 29213); [8]): −0.66
Median Kidney Burden (Log cfu/kidneys) (S. aureus (ATCC 29213); [8]): 4.55 Log cfu/kidneys
Log Difference vs. Vehicle Control (S. aureus (ATCC 29213); [9]): −0.08
Median Kidney Burden (Log cfu/kidneys) (S. aureus (ATCC 29213); [9]): 4.89 Log cfu/kidneys
kidney burden, compound- versus vehicle-treated mice (S. aureus (ATCC 29213); 30 minutes after the initial treatment, 10, 30, 100 mg/kg oral): no difference in kidney burden
log reduction versus the 30 minute early control (S. aureus (ATCC 29213); 6 hours after the first dose, 30 and 100 mg/kg oral): 0.3-0.4 log
reduction of bacterial burdens in the kidneys versus time-matched vehicle control (S. aureus (ATCC 29213); 6 hours after the first dose, all compound treatments (10, 30, 100 mg/kg oral)): 0.4-0.6 logs
log reduction versus the 24-hour vehicle-treated control (S. aureus (ATCC 29213); 24 hours, 10 mg/kg BID oral): 1.8 log
log reduction versus the 24-hour vehicle-treated control (S. aureus (ATCC 29213); 24 hours, 30 and 100 mg/kg BID oral): 2.8-2.9 log
log reductions versus the 30-minute vehicle-treated control (S. aureus (ATCC 29213); 24 hours, 30 and 100 mg/kg oral): approximately 1.5 log
Median Kidney Burden (Log cfu/kidneys) (S. aureus (ATCC 29213); single oral dose 10 mg/kg 2 h post challenge, after 24 hours): 4.73 Log cfu/kidneys
Log Reduction vs. Early Control (S. aureus (ATCC 29213); [10]): 0.00
Log Reduction vs. Late Control (S. aureus (ATCC 29213); [10]): −1.90
log reductions versus vehicle control (S. aureus (ATCC 29213); [10]): 1.9 log
Log Reduction vs. Early Control (S. aureus (ATCC 29213); [11]): −0.40
Log Reduction vs. Late Control (S. aureus (ATCC 29213); [11]): −2.31
Median Kidney Burden (Log cfu/kidneys) (S. aureus (ATCC 29213); [11]): 4.32 Log cfu/kidneys
log reductions versus vehicle control (S. aureus (ATCC 29213); [11]): 2.3 log
Log Reduction vs. Early Control (S. aureus (ATCC 29213); [12]): −1.21
Log Reduction vs. Late Control (S. aureus (ATCC 29213); [12]): −3.11
Median Kidney Burden (Log cfu/kidneys) (S. aureus (ATCC 29213); [12]): 3.52 Log cfu/kidneys
log reductions versus vehicle control (S. aureus (ATCC 29213); [12]): 3.1 log
Log Reduction vs. Early Control (S. aureus (ATCC 29213); [13]): −1.42
Log Reduction vs. Late Control (S. aureus (ATCC 29213); [13]): −3.32
Median Kidney Burden (Log cfu/kidneys) (S. aureus (ATCC 29213); [13]): 3.31 Log cfu/kidneys
log reductions versus vehicle control (S. aureus (ATCC 29213); [13]): 3.3 log
reduction of bacterial burdens versus the early control (S. aureus (ATCC 29213); single oral doses of 60 and 100 mg/kg, after 24 hours): 1.2-1.4 logs
MIC (Bacillus cereus; ATCC10987, Bacillus cereus ATCC 10987): 0.031 µg/mL
MIC (Bacillus cereus; ATCC14579, Bacillus cereus ATCC 14579): 0.031 µg/mL
MIC90 (Fusobacterium spp.): > 16 µg/mL
MIC90 (Bacteroides fragilis): 16 µg/mL
MIC Range (Bacteroides fragilis): 1 to 16 µg/mL
MIC90 (Staphylococcus aureus; 67 isolates tested, Protocol 1): 0.03 µg/mL
MIC (Staphylococcus aureus; ATCC29213, Staphylococcus aureus ATCC 29213, Protocol 1, read-out: MIC): 0.021 µg/mL
MIC (Staphylococcus aureus; ATCC29213, Staphylococcus aureus ATCC 29213 GyrB T173I, Protocol 1): 0.3 µg/mL
MIC (Staphylococcus aureus; ATCC29213, Staphylococcus aureus ATCC 29213 with Mouse Serum, Protocol 1, read-out: MIC): 0.5 µg/mL
MIC (Staphylococcus aureus; ATCC29213, Staphylococcus aureus ATCC 29213 with Rat Serum, Protocol 1, read-out: MIC): 0.18 µg/mL
MIC (Pseudomonas aeruginosa): 0.25 µg/mL
MIC90 (Pseudomonas aeruginosa): > 8 µg/mL
MIC (Pseudomonas aeruginosa; PAO1): > 16 µg/mL

CCNC(=O)Nc1nc2cc(-c3cnc(C(C)(C)OP(=O)([O-])[O-])nc3)c(F)c([C@H]3CCCO3)c2[nH]1.[Na+].[Na+] [Compound W, disodium (R)-2-(5-(2-(3-ethylureido)-6-fluoro-7-(tetrahydrofuran-2-yl)-1H-benzo[d]imidazol-5-yl)pyrimidin-2-yl)propan-2-yl phosphate]
Median Kidney Burden (Log10 CFU/kidneys) (S. aureus (ATCC 29213); single oral dose 16 (10) mg/kg Compound W (dose equivalent in brackets), after 24 hours): 3.69 Log10 CFU/kidneys
Log10 Difference vs. Early Control (S. aureus (ATCC 29213); [14]): −0.71
Log10 Difference vs. Late Control (S. aureus (ATCC 29213); [14]): −2.25
Log10 Difference vs. Early Control (S. aureus (ATCC 29213); [15]): −1.18
Log10 Difference vs. Late Control (S. aureus (ATCC 29213); [15]): −2.72
Median Kidney Burden (Log10 CFU/kidneys) (S. aureus (ATCC 29213); [15]): 3.22 Log10 CFU/kidneys
Log10 Difference vs. Early Control (S. aureus (ATCC 29213); [16]): −1.08
Log10 Difference vs. Late Control (S. aureus (ATCC 29213); [16]): −2.62
Median Kidney Burden (Log10 CFU/kidneys) (S. aureus (ATCC 29213); [16]): 3.32 Log10 CFU/kidneys
Log10 Difference vs. Early Control (S. aureus (ATCC 29213); [17]): −1.46
Log10 Difference vs. Late Control (S. aureus (ATCC 29213); [17]): −3.00
Median Kidney Burden (Log10 CFU/kidneys) (S. aureus (ATCC 29213); [17]): 2.94 Log10 CFU/kidneys
reduction of bacterial burdens versus the early control (S. aureus (ATCC 29213); single oral doses of 16, 49, 99 and 166 mg/kg Compound W, after 24 hours): 0.7-1.5 logs
